{"source": "patent US20210038668A1", "about": "“TRADITIONAL CHINESE MEDICINE COMPOSITION FOR PREVENTING AND/OR TREATING ISCHEMIC REPERFUSION INJURY” (TASLY PHARMACEUTICAL GROUP CO., LTD., priority 2018, published 2021)", "format_in_all_cases": "in vivo, C57BL/6 mice", "key": {"ATP5D": {"test_system": "ATP5D", "assay": "ATP5D content in brain tissue", "details": "brain tissue 24 hours after administration, sham = 1.00; tPA 10 mg/kg alone; T541 20 mg/kg + tPA 10 mg/kg", "protocol": "(§1) After reperfused for 24 hours, mice were perfused by normal saline; Western blotting analysis was conducted to the penumbra field of infarcted right cerebral cortex. After perfused, mice brain tissue was taken out; cerebellum and prefrontal lobe were cut off; the brain tissue of right brain close to 1 cm of the central joint of left and right hemispheres along the sagittal view; infarcted penumbra field of the rest tissues was cut off along an 45° angle; the cerebral cortex of the penumbra field was peeled off and preserved at low temperature. Right cerebral cortex was taken and added 1×RIPA lysate and a Cocktail protease inhibitor (1:100, Cell Signaling Technology, US) for full pyrolysis and ultrasonic treatment, and then 17000 g were centrifuged for 30 minutes. Supernatant was taken and added 5×loading buffer by volume, boiled for 20 minutes in boiling water, and then preserved at −80° C. Excessive supernatant was taken out and quantified by a BCA protein quantification liquor (ThermoScientific, US) to measure absorbance value at 560 nm of ELIASA and to calculate the protein concentration according to a standard curve. […] The density of electrophoretic strips was analyzed by an image analysis software Quantityone. […]"}, "[1]": {"test_system": "brain surface postcapillary venule", "assay": "Plasma albumin leakage of brain surface postcapillary venule", "details": "24 h after administration; tPA 10 mg/kg alone; T541 20 mg/kg + tPA 10 mg/kg", "protocol": "Plasma albumin leakage: femoral venous cannula of mice was conducted under a stereoscopic microscope (PE/08, outer diameter: 0.36 mm and inner diameter: 0.20 mm). Mice were fixed on an observation board for brain microcirculation in prone position; parietal skin of mice was cut off to expose right parietal bone; the whole parietal bone was thinned by grinding by a hand-held cranial drill till there is only one layer of soft bone cortex under the stereoscopic microscope. FITC-labelled plasma albumin (excitation wavelength: 420-490 nm, emission wavelength: 520 nm) was slowly injected via femoral vein. 10 minutes later, fluorescence images of postcapillary venule, artery in the dominant region of middle cerebral artery and artery in the dominant region of anterior cerebral artery among […] (diameter) on the surface of the mice brain after reperfused for 24 hours by an upright fluorescent microscope linked to hypersensitive fluorescent CCD; then leakage of plasma albumin was analyzed. Fluorescence intensity inside (Iv) and outside (Ii) venule was calculated by an image analysis software ImageJ (Bethesda, Md., USA); the leakage of plasma albumin is denoted by Ii/Iv."}, "[2]": {"test_system": "cerebral cortex vessels and neurons in penumbra", "assay": "Transmission electron microscopy of cerebral cortex", "details": "24 h after administration", "protocol": "Transmission electron microscope (IEM): after reperfused for 24 hours, anesthetized mice were perfused 3% glutaraldehyde for 40 minutes via ventriculus sinister at a rate of 3 ml/min; the brain was taken, and the mice right cortex was cut into small pieces (1 mm×1 mm×1 mm); small pieces were immobilized in 3% glutaraldehyde for 30 minutes at room temperature or stored over night at 4° C. The brain pieces were washed on a table containing sucrose for 3 times for 15 minutes, immobilized by osmic acid for 2 hours at room temperature, washed by 0.2; PBS for 3 times for 15 minutes, dehydrated for 15 minutes respectively by 30%, 50%, 70% and 90% acetone, and dehydrated for 15 minutes for 15 minutes by 100% acetone, then preimpregnated into a pre-embedding agent mixed by 100% acetone and embedding agent according to a ratio of 1:1; and kept over the night at 37° C.; then brain pieces were impregnated by a pure embedding agent for 24 hours at 37° C., and cured for 48 hours, then naturally cooled; afterwards, brain pieces were trimmed and cut into slices with the thickness of 60 nm. The slices were stained by uranyl acetate and lead citrate, and observed and shoot by a IEM (JEM 1230, JEOL, Tokyo, Japan)."}, "JAM-1": {"test_system": "JAM-1", "assay": "Western blotting of JAM-1, cortex of ischemic penumbra", "details": "brain tissue 24 hours after administration, sham = 1.00; tPA 10 mg/kg alone; T541 20 mg/kg + tPA 10 mg/kg", "protocol": "as §1"}, "[3]": {"test_system": "ATP, ADP and AMP of cerebral cortex in ischemic penumbra", "assay": "ELISA of ATP, ADP and AMP in brain tissue", "details": "brain tissue 24 hours after administration", "from_the_text": "(§2) To compare the therapeutical effect on reperfusion injury caused by tPA thrombolysis between the traditional Chinese medicinal composition of the present invention and each ingredient (total saponins of Astragalus, the experiment was divided into the following group (tPA is combined with T541, individual ingredient thereof and compatibility of any two ingredients) specifically as follows: tPA+total saponins of Astragalus (tPA+HQ), tPA+ salvianolic acids (tPA+DS), tPA+Panax notoginseng saponins (tPA+SQ), tPA+ total saponins of Astragalus+salvianolic acids (tPA+HQ+DS), tPA+ total saponins of Astragalus+Panax notoginseng saponins (tPA+HQ+SQ), tPA+ salvianolic acids+Panax notoginseng saponins (tPA+DS+SQ) and tPA+T541. Normal saline served as an isovolumetric control. The usage number in each group is 6.\n(§3) ELISA adsorption kit was used to measure the change on the content of MDA, 8-hydroxyl-2′-deoxyguanosine (8-OHdG), adenosine triphosphate (ATP), adenosine diphosphate (ADP) and adenosine monophosphate (AMP) in the penumbra field of brain tissue cortex of the mode, and the change on the activity of mitochondrial complexes I, II, IV and V. 6 samples were used to repeat the independent experiment for at least three times for each group of data."}, "MDA": {"test_system": "MDA", "assay": "ELISA of MDA in brain tissue", "details": "brain tissue 24 hours after administration; tPA 10 mg/kg alone or + T541 20 mg/kg or ingredients at Table 7 doses", "from_the_text": "as §2, §3"}, "[4]": {"details": "tPA alone, T541 combined with tPA"}, "[5]": {"details": "tPA 10 mg/kg alone or + T541 20 mg/kg or ingredients at Table 7 doses"}}}
{"substance": "tPA: tissue-type plasminogen activator (tPA) for thrombolysis", "values": [{"measurement": "ATP5D", "setting": "ATP5D", "value": "0.71 ± 0.05"}, {"measurement": "Albumin exudation ratio of venule %", "setting": "[1]", "value": "125.10 ± 3.53", "unit": "%"}, {"measurement": "TEM: vascular endothelium and perivascular edema (in words)", "setting": "[2]; tPA 10 mg/kg alone, T541 20 mg/kg + tPA", "value": "vascular endothelium is rough, and has obvious edema gap with surrounding tissues"}, {"measurement": "TEM: endothelial cell adhesion structure of cerebral cortex vessels (in words)", "setting": "[2]; [4]", "value": "the close adhesion structure of cerebral cortex vessels in penumbra field is opened"}, {"measurement": "TEM: neurons of cerebral cortex in penumbra (in words)", "setting": "[2]; [4]", "value": "bodies of neuron shrink and deform"}, {"measurement": "JAM-1/β-actin", "setting": "JAM-1", "value": "0.52 ± 0.04"}, {"measurement": "ADP", "setting": "[3]; [5]", "value": "2.51 ± 0.24"}, {"measurement": "ADP/ATP", "setting": "[3]; [5]", "value": "2.45 ± 0.10"}, {"measurement": "AMP", "setting": "[3]; [5]", "value": "2.66 ± 0.32"}, {"measurement": "AMP/ATP", "setting": "[3]; [5]", "value": "2.68 ± 0.34"}, {"measurement": "ATP", "setting": "[3]; tPA 10 mg/kg alone or + T541 20 mg/kg or ingredients at Table 7 doses (Astragalus saponins 10, Panax notoginseng saponins 2, salvianolic acids 8, in pairs 2 mg/kg)", "value": "1.05 ± 0.13"}, {"measurement": "MDA", "setting": "MDA", "value": "30.08 ± 2.90"}]}
